target: T1, POLγA:A467T (Homo sapiens, UniProt P54098, A467T); test: DNA polymerization assay, POLγA:A467T mutant; assay type: biochemical; conditions: stimulation of polymerase activity, primed M13mp18 ssDNA, 37° C. 2 hours; read-out: A467T AC50
T1 sequence (P54098 1-1239 A467T): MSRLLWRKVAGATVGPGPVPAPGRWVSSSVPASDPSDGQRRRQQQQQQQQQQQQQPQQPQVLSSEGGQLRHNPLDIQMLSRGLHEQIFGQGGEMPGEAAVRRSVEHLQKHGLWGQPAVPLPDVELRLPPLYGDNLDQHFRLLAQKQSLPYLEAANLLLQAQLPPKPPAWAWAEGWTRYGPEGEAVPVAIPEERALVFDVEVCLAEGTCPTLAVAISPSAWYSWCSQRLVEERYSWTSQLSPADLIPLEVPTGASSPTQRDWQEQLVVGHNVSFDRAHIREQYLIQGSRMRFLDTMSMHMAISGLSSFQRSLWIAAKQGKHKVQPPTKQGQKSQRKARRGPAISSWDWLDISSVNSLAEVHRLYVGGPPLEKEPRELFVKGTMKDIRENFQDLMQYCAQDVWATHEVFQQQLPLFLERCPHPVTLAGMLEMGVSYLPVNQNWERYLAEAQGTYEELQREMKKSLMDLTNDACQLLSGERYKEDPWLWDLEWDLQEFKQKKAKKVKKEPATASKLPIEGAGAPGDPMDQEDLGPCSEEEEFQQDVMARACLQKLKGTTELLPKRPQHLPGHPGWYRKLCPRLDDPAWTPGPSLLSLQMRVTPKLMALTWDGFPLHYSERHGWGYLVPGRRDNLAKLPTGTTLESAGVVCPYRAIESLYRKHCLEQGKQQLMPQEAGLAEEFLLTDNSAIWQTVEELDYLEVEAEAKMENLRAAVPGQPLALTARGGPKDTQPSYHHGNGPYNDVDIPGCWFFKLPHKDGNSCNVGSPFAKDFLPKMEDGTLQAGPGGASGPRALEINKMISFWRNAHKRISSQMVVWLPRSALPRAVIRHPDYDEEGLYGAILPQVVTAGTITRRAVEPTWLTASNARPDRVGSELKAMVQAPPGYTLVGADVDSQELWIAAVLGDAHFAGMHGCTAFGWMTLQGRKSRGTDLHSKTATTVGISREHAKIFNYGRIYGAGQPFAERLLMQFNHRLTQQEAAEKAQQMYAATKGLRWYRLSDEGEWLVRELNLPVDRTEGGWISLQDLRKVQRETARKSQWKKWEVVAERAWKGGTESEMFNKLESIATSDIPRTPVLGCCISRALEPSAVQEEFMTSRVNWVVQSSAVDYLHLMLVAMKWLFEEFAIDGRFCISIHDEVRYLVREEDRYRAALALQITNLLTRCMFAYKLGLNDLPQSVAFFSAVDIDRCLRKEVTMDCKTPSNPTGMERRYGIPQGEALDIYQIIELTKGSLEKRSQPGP
T1 sequence (Q9UHN1 1-485 partner): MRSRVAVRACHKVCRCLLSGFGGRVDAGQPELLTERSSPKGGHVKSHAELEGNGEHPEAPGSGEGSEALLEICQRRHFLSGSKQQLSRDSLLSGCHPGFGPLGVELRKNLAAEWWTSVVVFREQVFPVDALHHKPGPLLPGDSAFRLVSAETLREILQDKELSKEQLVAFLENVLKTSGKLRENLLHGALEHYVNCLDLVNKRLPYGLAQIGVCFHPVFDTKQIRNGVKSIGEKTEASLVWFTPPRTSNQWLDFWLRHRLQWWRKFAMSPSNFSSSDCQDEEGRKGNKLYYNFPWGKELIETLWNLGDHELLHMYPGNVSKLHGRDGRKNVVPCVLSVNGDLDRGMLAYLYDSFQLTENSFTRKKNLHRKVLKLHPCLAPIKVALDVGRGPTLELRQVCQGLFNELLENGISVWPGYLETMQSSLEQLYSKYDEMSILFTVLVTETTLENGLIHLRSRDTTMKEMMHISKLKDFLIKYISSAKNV

| AC50 [µM] | Compound |
| --- | --- |
| > 100 | Cc1cc(S(=O)(=O)Nc2csc(C(=O)N(CC(N)=O)C3CCCC3)n2)c(C)cc1Cl [Example 177, N-(2-amino-2-oxoethyl)-4-((4-chloro-2,5-dimethylphenyl)sulfonamido)-N-cyclopentylthiazole-2-carboxamide] |
| > 10 | Cc1cc(S(=O)(=O)Nc2nc(-c3ccccc3)n(C)n2)c(C)cc1Cl [Example 180, 4-chloro-2,5-dimethyl-N-(1-methyl-5-phenyl-1H-1,2,4-triazol-3-yl)benzenesulfonamide] |
| > 100 | Cc1cc(S(=O)(=O)Nc2cccc(C(=O)N3CCC(F)(F)C3)c2)c(C)cc1Cl [Example 160, 4-chloro-N-(3-(3,3-difluoropyrrolidine-1-carbonyl)phenyl)-2,5-dimethylbenzenesulfonamide] |
| 5 | Cc1ccc(C)c(S(=O)(=O)Nc2cccc(-c3nccs3)c2)c1 [Example 60] |
| > 100 | Cc1cc(S(=O)(=O)Nc2cc(C(=O)N3CCC[C@H]3C)ccc2F)c(C)cc1Cl [Example 50, (R)-4-chloro-N-(2-fluoro-5-(2-methylpyrrolidine-1-carbonyl)phenyl)-2,5-dimethylbenzenesulfonamide] |
| > 100 | Cc1cc(S(=O)(=O)Nc2cccc(C(=O)N(C)C(C)CO)c2)c(C)cc1Cl (single isomer, unassigned) [Example 15, 3-((4-chloro-2,5-dimethylphenyl)sulfonamido)-N-(1-hydroxypropan-2-yl)-N-methylbenzamide] |
| > 100 | Cc1cc(S(=O)(=O)Nc2cccc(C(=O)N[C@H](C)c3ccccc3)c2)c(C)cc1Cl [Example 48, (R)-3-((4-chloro-2,5-dimethylphenyl)sulfonamido)-N-(1-phenylethyl)benzamide] |
| 8 | Cc1cc(S(=O)(=O)Nc2cccc(-c3cc(C4CC4)[nH]n3)c2)c(C)cc1Cl [Example 64, 4-chloro-N-(3-(5-cyclopropyl-1H-pyrazol-3-yl)phenyl)-2,5-dimethylbenzenesulfonamide] |
| > 100 | Cc1cc(S(=O)(=O)N[C@H]2CCN(c3ccccc3)C2)c(C)cc1Cl [Example 158, (S)-4-chloro-2,5-dimethyl-N-(1-phenylpyrrolidin-3-yl)benzenesulfonamide] |
| > 100 | Cc1cc(S(=O)(=O)Nc2cccc3c2CC(=O)N3)c(C)cc1Cl [Example 36, 4-chloro-2,5-dimethyl-N-(2-oxoindolin-4-yl)benzenesulfonamide] |
| > 100 | Cc1ccc(C)c(S(=O)(=O)Nc2cccc(C(=O)N3CCSCC3C(N)=O)c2)c1 (centres unmarked) [Example 41, 4-(3-((2,5-dimethylphenyl)sulfonamido)benzoyl) thiomorpholine-3-carboxamide] |
| 16 | Cc1cc(S(=O)(=O)Nc2cccc(-c3cc[nH]n3)c2)c(C)cc1Cl [Example 68, N-(3-(1H-pyrazol-3-yl)phenyl)-4-chloro-2,5-dimethylbenzenesulfonamide] |
| 8 | Cc1cc(S(=O)(=O)Nc2csc(C3CCOCC3)n2)c(C)cc1Cl [Example 167, 4-chloro-2,5-dimethyl-N-(2-(tetrahydro-2H-pyran-4-yl)thiazol-4-yl)benzenesulfonamide] |
| > 100 | Cc1cc(S(=O)(=O)Nc2csc(-n3cccn3)n2)c(C)cc1Cl [Example 178, N-(2-(1H-pyrazol-1-yl)thiazol-4-yl)-4-chloro-2,5-dimethylbenzenesulfonamide] |
| 33 | Cc1cc2cc(NS(=O)(=O)c3cc(C)c(Cl)cc3C)ccc2[nH]1 [Example 184, 4-chloro-2,5-dimethyl-N-(2-methyl-1H-indol-5-yl)benzenesulfonamide] |
| > 100 | CC(=O)N1CCN(C(=O)c2cccc(NS(=O)(=O)c3cc(C)ccc3C)c2)CC1 [Example 30, N-(3-(4-acetylpiperazine-1-carbonyl)phenyl)-2,5-dimethylbenzenesulfonamide] |

| AC50 [µM] | Compound |
| --- | --- |
| > 100 | COCCNC(=O)c1cccc(NS(=O)(=O)c2cc(C)c(Cl)cc2C)c1 [Example 47, 3-((4-chloro-2,5-dimethylphenyl)sulfonamido)-N-(2-methoxyethyl)benzamide] |
| > 100 | Cc1ccc(C)c(S(=O)(=O)Nc2cccc(C(=O)N3CCN(C)CC3)c2)c1 [Example 31, 2,5-dimethyl-N-(3-(4-methylpiperazine-1-carbonyl)phenyl)benzenesulfonamide] |
| 2 | Cc1cc(S(=O)(=O)Nc2csc(C(=O)N3CCC[C@H]3C)n2)c(C)cc1Cl [Example 174, (R)-4-chloro-2,5-dimethyl-N-(2-(2-methylpyrrolidine-1-carbonyl)thiazol-4-yl)benzenesulfonamide] |
| > 100 | Cc1ccc(C)c(S(=O)(=O)Nc2cccc(C(=O)N(C)C)c2)c1 [Example 25, 3-((2,5-dimethylphenyl)sulfonamido)-N,N-dimethylbenzamide] |
| > 100 | Cc1cc(S(=O)(=O)Nc2cc(-c3nccs3)ccc2F)c(C)cc1Cl [Example 61, 4-chloro-N-(2-fluoro-5-(thiazol-2-yl)phenyl)-2,5-dimethylbenzenesulfonamide] |
| 4 | Cc1csc(-c2cccc(NS(=O)(=O)c3cc(C)c(Cl)cc3C)c2)n1 [Example 20, 4-chloro-2,5-dimethyl-N-(3-(4-methylthiazol-2-yl)phenyl)benzenesulfonamide] |
| 6 | Cc1cc(S(=O)(=O)Nc2csc(-c3cnn(C)c3)n2)c(C)cc1Cl [Example 183, 4-chloro-2,5-dimethyl-N-(2-(1-methyl-1H-pyrazol-4-yl)thiazol-4-yl)benzenesulfonamide] |
| > 100 | Cc1ccccc1S(=O)(=O)Nc1cccc(C(=O)N2CCOC[C@@H]2C)c1 [Example 23, (S)-2-methyl-N-(3-(3-methylmorpholine-4-carbonyl)phenyl)benzenesulfonamide] |
| > 100 | Cc1cc(S(=O)(=O)Nc2ccc(F)c(-c3nccs3)c2)c(C)cc1Cl [Example 63, 4-chloro-N-(4-fluoro-3-(thiazol-2-yl)phenyl)-2,5-dimethylbenzenesulfonamide] |
| > 100 | Cc1cc(S(=O)(=O)Nc2cccc(C(=O)N3CCN(C)C[C@H]3C)c2)c(C)cc1Cl [Example 54, (R)-4-chloro-N-(3-(2,4-dimethylpiperazine-1-carbonyl)phenyl)-2,5-dimethylbenzenesulfonamide] |
| > 100 | Cc1cc(S(=O)(=O)N(C)c2cccc(-c3nccs3)c2)c(C)cc1Cl [Example 22, 4-chloro-N,2,5-trimethyl-N-(3-(thiazol-2-yl)phenyl)benzenesulfonamide] |
| > 100 | COc1ccc(S(=O)(=O)Nc2cccc(C(=O)N3CCSCC3C#N)c2)cc1 (centres unmarked) [Example 34, N-(3-(3-cyanothiomorpholine-4-carbonyl)phenyl)-4-methoxybenzenesulfonamide] |
| > 100 | Cc1ccc(C)c(S(=O)(=O)Nc2ccc(C(=O)N[C@@H](C)C3CC3)cc2)c1 [Example 39, (S)-N-(1-cyclopropylethyl)-4-((2,5-dimethylphenyl)sulfonamido)benzamide] |
| > 100 | Cc1cc(S(=O)(=O)Nc2cccc(C(N)=O)c2)c(C)cc1Cl [Example 44, 3-((4-chloro-2,5-dimethylphenyl)sulfonamido)benzamide] |
| > 100 | Cc1cc(S(=O)(=O)Nc2csc(C(=O)N(CC(N)=O)C3CCCCC3)n2)c(C)cc1Cl [Example 179, N-(2-amino-2-oxoethyl)-4-((4-chloro-2,5-dimethylphenyl)sulfonamido)-N-cyclohexylthiazole-2-carboxamide] |
| > 100 | Cc1ccc(C)c(S(=O)(=O)Nc2ccc(C(=O)N3CCCC[C@H]3C)s2)c1 [Example 43, (R)-2,5-dimethyl-N-(5-(2-methylpiperidine-1-carbonyl)thiopheN-2-yl)benzenesulfonamide] |
